Target: Recombinant human c-KIT kinase (Homo sapiens (Human), UniProt P10721)
Assay: c-KIT kinase chemiluminescence assay (ADP-Glo)
Format: biochemical
Conditions: ATP 50 μM
Method: The c-KIT Kinase Enzyme System (V4498) and ADP-Glo™ Kinase Assay kit (V6930) were purchased from Promega (Madison, WI). DMSO (D2650) was purchased from Sigma-Aldrich (Burlington, MA).
Kinase Reaction: The kinase assay was based on the recommended protocol by c-KIT Kinase Enzyme System from Promega. Recombinant human c-KIT kinase in 3 μL of assay buffer (40 mM Tris pH 7.5, 20 mM MgCl2, 0.1 mg/mL BSA and 50 μM DTT) was added to the test or high control wells and 3 μL of assay buffer was added to the low control wells. The microplate was centrifuged at 800 rotations per minute (rpm) for 60 s and incubated at room temperature (RT) for 30 min. Next, 2 μL of buffered ATP and polyEY substrate solution was added to all wells. The microplate was centrifuged at 800 rpm for 60 s and incubated at RT for 2 h.
ADP detection with ADP-Glo™ Kinase Assay: After the kinase reaction incubation, 5 μL of ADP-Glo™ reagent was added to all wells. The microplate was centrifuged at 800 rpm for 60 s and incubated at RT for 40 min. Ten microliter (10 μL) of Kinase Detection Reagent (Luciferin-Luciferase system) was then added to all wells. The microplate was centrifuged at 800 rpm for 60 s and incubated at RT for 60 min. Kinase activity was measured as increase in luminescence at RT in an Envision plate reader equipped with 560 nm filters and operating in endpoint mode. Data Analysis: Endpoint chemiluminescence from high and low control wells were used to calculate normalized c-KIT activity at various concentrations of test compounds. The normalized activities were fitted to inhibitor-versus-normalized response fit in GraphPad Prism 7 to determine half-maximal inhibitory concentration (IC50) and hill coefficient values (H).
Where I is the inhibitor concentration and H is the Hill coefficient.

Recombinant human c-KIT kinase, sequence (P10721 26-976): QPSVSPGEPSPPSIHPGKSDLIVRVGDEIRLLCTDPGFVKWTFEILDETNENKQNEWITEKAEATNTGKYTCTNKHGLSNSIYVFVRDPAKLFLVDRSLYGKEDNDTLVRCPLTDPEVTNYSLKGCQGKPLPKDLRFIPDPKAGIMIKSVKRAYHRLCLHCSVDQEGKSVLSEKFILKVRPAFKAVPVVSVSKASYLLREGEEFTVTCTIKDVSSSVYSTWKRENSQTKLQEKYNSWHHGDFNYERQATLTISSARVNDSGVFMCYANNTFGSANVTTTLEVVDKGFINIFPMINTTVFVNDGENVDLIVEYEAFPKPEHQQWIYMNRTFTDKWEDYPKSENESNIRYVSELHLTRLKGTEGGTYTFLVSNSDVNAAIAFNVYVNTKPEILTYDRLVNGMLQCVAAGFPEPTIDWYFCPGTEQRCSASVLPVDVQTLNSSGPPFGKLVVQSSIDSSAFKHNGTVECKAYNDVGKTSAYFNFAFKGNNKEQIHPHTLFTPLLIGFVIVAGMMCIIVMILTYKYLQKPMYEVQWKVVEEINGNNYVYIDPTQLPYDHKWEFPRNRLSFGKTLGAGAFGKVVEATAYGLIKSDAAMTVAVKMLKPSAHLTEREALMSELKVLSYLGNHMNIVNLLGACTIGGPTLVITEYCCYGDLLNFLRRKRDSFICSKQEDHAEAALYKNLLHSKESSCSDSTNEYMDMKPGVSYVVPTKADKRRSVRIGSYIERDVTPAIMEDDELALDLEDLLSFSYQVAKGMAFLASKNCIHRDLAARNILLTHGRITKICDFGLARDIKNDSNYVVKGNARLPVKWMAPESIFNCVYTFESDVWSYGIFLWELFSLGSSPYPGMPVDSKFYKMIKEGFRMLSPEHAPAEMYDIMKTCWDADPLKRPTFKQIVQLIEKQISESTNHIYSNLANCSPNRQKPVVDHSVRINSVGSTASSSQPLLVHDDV

IC50 | SMILES
100 to 1000 nM | Cc1ccc(-c2noc([C@H]3C[C@@H]3F)n2)cc1NC(=O)c1cnc2cnccn12 [Example 1]
> 1000 nM | Cc1ccc(-c2noc([C@H]3C[C@@H]3F)n2)cc1NC(=O)c1cnn2c1CCCC2 [Example 9]
> 1000 nM | Cc1ccc(-c2noc([C@H]3C[C@@H]3F)n2)cc1NC(=O)c1cnn(C)c1C [Example 11]
> 1000 nM | Cc1ccc(-c2noc([C@H]3C[C@@H]3F)n2)cc1NC(=O)c1cnn2ncccc12 [Example 18]
> 1000 nM | Cc1ccc(-c2noc([C@H]3C[C@@H]3F)n2)cc1NC(=O)c1nnn2ccccc12 [Example 21]
> 1000 nM | Cc1ccc(-c2noc([C@H]3C[C@@H]3F)n2)cc1NC(=O)c1cnc2ncccn12 [Example 25]
> 1000 nM | Cc1ccc(-c2noc([C@H]3C[C@@H]3F)n2)cc1NC(=O)c1cnc2[nH]ncc2c1 [Example 31]
> 1000 nM | Cc1ccc(-c2noc([C@H]3C[C@@H]3F)n2)cc1NC(=O)c1cnc2c(cnn2C(=O)C(C)C)c1 [Example 32]
> 1000 nM | Cc1ccc(-c2noc([C@H]3C[C@@H]3F)n2)cc1NC(=O)c1cnc2cccn2c1 [Example 45]
> 1000 nM | Cc1ccc(-c2noc([C@H]3C[C@@H]3F)n2)cc1NC(=O)c1cnc2nccn2c1 [Example 46]
> 1000 nM | Cc1ccc(-c2noc([C@H]3C[C@@H]3F)n2)cc1NC(=O)c1cnc2ccnn2c1 [Example 47]
> 1000 nM | Cc1ccc(-c2noc([C@H]3C[C@@H]3F)n2)cc1NC(=O)c1cnc2cnn(C(=O)C(C)C)c2c1 [Example 49]
> 1000 nM | Cc1ccc(-c2noc([C@H]3C[C@@H]3F)n2)cc1NC(=O)c1cnc2cnccc2c1 [Example 63]
> 1000 nM | Cc1ccc(-c2noc([C@H]3C[C@@H]3F)n2)cc1NC(=O)c1cnc2ccncc2c1 [Example 64]
> 1000 nM | Cc1ccc(-c2noc([C@H]3C[C@@H]3F)n2)cc1NC(=O)c1cnc2c(c1)ncn2C(=O)C(C)C [Example 67]
> 1000 nM | Cc1ccc(-c2noc([C@H]3C[C@@H]3F)n2)cc1NC(=O)c1cnn2ccc(C(=O)N3CCCCC3)cc12 [Example 89]
100 to 1000 nM | Cc1ccc(-c2noc([C@H]3C[C@@H]3F)n2)cc1NC(=O)c1cnn2ccc(C(=O)NC3CCCCC3)cc12 [Example 91]
< 100 nM | Cc1ccc(-c2noc([C@H]3C[C@@H]3F)n2)cc1NC(=O)c1cnn2cc(-c3cn(C(F)F)nn3)ccc12 [Example 107]
< 100 nM | Cc1ccc(-c2noc([C@H]3C[C@@H]3F)n2)cc1NC(=O)c1cnn2cc(-c3cnn(C(F)F)c3)ccc12 [Example 133]
< 100 nM | Cc1ccc(-c2noc([C@H]3C[C@@H]3F)n2)cc1NC(=O)c1cnn2cc(-c3ccn(C(F)F)n3)ccc12 [Example 134]
< 100 nM | Cc1ccc(-c2noc([C@H]3C[C@@H]3F)n2)cc1NC(=O)c1cnn2cc(-c3cnn(C4COC4)c3)ccc12 [Example 137]
< 100 nM | Cc1ccc(-c2noc([C@H]3C[C@@H]3F)n2)cc1NC(=O)c1cnn2cc(-c3cnn(CCO)c3)ccc12 [Example 139]
< 100 nM | Cc1ccc(-c2noc([C@H]3C[C@@H]3F)n2)cc1NC(=O)c1cnn2cc(-c3cnn(C(C)(C)CO)c3)ccc12 [Example 141]
< 100 nM | Cc1ccc(-c2noc([C@H]3C[C@@H]3F)n2)cc1NC(=O)c1cnn2cc(-c3cnn(CC(C)(C)O)c3)ccc12 [Example 143]
100 to 1000 nM | Cc1ccc(-c2noc([C@H]3C[C@@H]3F)n2)cc1NC(=O)c1cnn2cc(Cl)c(N3CC4(COC4)C3)cc12 [Example 229]
< 100 nM | Cc1ccc(-c2noc([C@H]3C[C@@H](OC(F)F)C3)n2)cc1NC(=O)c1cnn2ccc(N3CC4(COC4)C3)cc12 [Example 242]
100 to 1000 nM | Cc1ncc(-c2nnn(C3CN(C(=O)C4CC4)C3)n2)cc1NC(=O)c1cnn2ccc(N3CC4(C3)CC(O)(C(F)F)C4)cc12 [Example 312-10]
> 1000 nM | O=C(Nc1cn(-c2ccc(C3CC3)cc2)nc1C(F)F)c1cnn2ccc(N3CC4(COC4)C3)cc12 [compound 373]

The remaining lines, values behind:

SMILES | IC50
Cc1ccc(-c2noc([C@H]3C[C@@H]3F)n2)cc1NC(=O)c1ccnc2cnccc12 [Example 8] | > 1000 nM
Cc1ccc(-c2noc([C@H]3C[C@@H]3F)n2)cc1NC(=O)c1cnc2n1CCCC2 [Example 10] | 100 to 1000 nM
Cc1ccc(-c2noc([C@H]3C[C@@H]3F)n2)cc1NC(=O)c1ccnc2ncccc12 [Example 12] | > 1000 nM
Cc1ccc(-c2noc([C@H]3C[C@@H]3F)n2)cc1NC(=O)c1cncn1-c1ccccc1 [Example 17] | > 1000 nM
Cc1ccc(-c2noc([C@H]3C[C@@H]3F)n2)cc1NC(=O)c1csc2cncnc12 [Example 19] | > 1000 nM
Cc1ccc(-c2noc([C@H]3C[C@@H]3F)n2)cc1NC(=O)c1nnc2ccccn12 [Example 20] | > 1000 nM
Cc1ccc(-c2noc([C@H]3C[C@@H]3F)n2)cc1NC(=O)c1cn(-c2ccccc2)nn1 [Example 22] | > 1000 nM
Cc1ccc(-c2noc([C@H]3C[C@@H]3F)n2)cc1NC(=O)c1cnc(-c2ccccc2F)s1 [Example 24] | 100 to 1000 nM
Cc1ccc(-c2noc([C@H]3C[C@@H]3F)n2)cc1NC(=O)c1ccnc2ccnn12 [Example 26] | > 1000 nM
Cc1ccc(-c2noc([C@H]3C[C@@H]3F)n2)cc1NC(=O)c1cnc2ncccc2c1 [Example 28] | > 1000 nM
Cc1ccc(-c2noc([C@H]3C[C@@H]3F)n2)cc1NC(=O)c1cnc2sccc2c1 [Example 29] | > 1000 nM
Cc1ccc(-c2noc([C@H]3C[C@@H]3F)n2)cc1NC(=O)c1cnc2[nH]ccc2c1 [Example 33] | > 1000 nM
Cc1ccc(-c2noc([C@H]3C[C@@H]3F)n2)cc1NC(=O)c1cnc2cn[nH]c2c1 [Example 48] | > 1000 nM
Cc1ccc(-c2noc([C@H]3C[C@@H]3F)n2)cc1NC(=O)c1cnc2ncsc2c1 [Example 50] | > 1000 nM
Cc1ccc(-c2noc([C@H]3C[C@@H]3F)n2)cc1NC(=O)c1cnn(-c2ccc(Cl)cc2)c1 [Example 51] | > 1000 nM
Cc1ccc(-c2noc([C@H]3C[C@@H]3F)n2)cc1NC(=O)c1cn(-c2ccccc2)nc1C [Example 53] | > 1000 nM
Cc1ccc(-c2noc([C@H]3C[C@@H]3F)n2)cc1NC(=O)c1cnc2ccccc2n1 [Example 65] | > 1000 nM
Cc1ccc(-c2noc([C@H]3C[C@@H]3F)n2)cc1NC(=O)c1cnc2[nH]cnc2c1 [Example 66] | > 1000 nM

SMILES | IC50
Cc1ccc(-c2noc([C@H]3C[C@@H]3F)n2)cc1NC(=O)c1cn2ccsc2n1 [Example 68] | > 1000 nM
Cc1ccc(-c2noc([C@H]3C[C@@H]3F)n2)cc1NC(=O)c1cnn(-c2ccccn2)c1 [Example 75] | 100 to 1000 nM
Cc1ccc(-c2noc([C@H]3C[C@@H]3F)n2)cc1NC(=O)c1cnn(-c2ccccc2Cl)c1 [Example 76] | > 1000 nM
Cc1ccc(-c2noc([C@H]3C[C@@H]3F)n2)cc1NC(=O)c1cnc(-c2ccccc2)[nH]1 [Example 77] | > 1000 nM
COc1ccccc1-c1ncc(C(=O)Nc2cc(-c3noc([C@H]4C[C@@H]4F)n3)ccc2C)[nH]1 [Example 78] | > 1000 nM
Cc1ccc(-c2noc([C@H]3C[C@@H]3F)n2)cc1NC(=O)c1cn[nH]c1-c1ccccc1 [Example 79] | 100 to 1000 nM
COc1cccc(-n2cc(C(=O)Nc3cc(-c4noc([C@H]5C[C@@H]5F)n4)ccc3C)cn2)c1 [Example 80] | 100 to 1000 nM
Cc1ccc(-c2noc([C@H]3C[C@@H]3F)n2)cc1NC(=O)c1cnn(-c2cccc(Cl)c2)c1 [Example 81] | > 1000 nM
Cc1ccc(-c2noc([C@H]3C[C@@H]3F)n2)cc1NC(=O)c1cnn(-c2cccc(Br)c2)c1 [Example 82] | > 1000 nM
Cc1ccc(-c2noc([C@H]3C[C@@H]3F)n2)cc1NC(=O)c1cnn(-c2ccccc2)n1 [Example 83] | > 1000 nM
Cc1ccc(-c2noc([C@H]3C[C@@H]3F)n2)cc1NC(=O)c1cnc(-c2ccccc2)s1 [Example 84] | 100 to 1000 nM
Cc1ccc(-c2noc([C@H]3C[C@@H]3F)n2)cc1NC(=O)n1c(=O)[nH]c2ccccc21 [Example 86] | > 1000 nM
Cc1ccc(-c2noc([C@H]3C[C@@H]3F)n2)cc1NC(=O)c1cnn(-c2cccc(NC(=O)OC(C)(C)C)c2)c1 [Example 87] | > 1000 nM
Cc1ccc(-c2noc([C@H]3C[C@@H]3F)n2)cc1NC(=O)c1cnn2c1ccc1ccccc12 [Example 88] | 100 to 1000 nM
Cc1ccc(-c2noc([C@H]3C[C@@H]3F)n2)cc1NC(=O)c1cnc2n1CCOc1ccccc1-2 [Example 101] | 100 to 1000 nM
C#Cc1ccc2c(C(=O)Nc3cc(-c4noc([C@H]5C[C@@H]5F)n4)ccc3C)cnn2c1 [Example 106] | < 100 nM
Cc1ccc(-c2noc([C@H]3C[C@@H]3F)n2)cc1NC(=O)c1cnc(-c2ccc3c(cnn3CC(C)(C)O)c2)o1 [Example 308-65] | < 100 nM
Cc1ccc(-c2noc([C@H]3C[C@@H]3F)n2)cc1NC(=O)c1cnc(-c2ccc3nn(CC(C)(C)O)cc3c2)o1 [Example 308-66] | < 100 nM

— US20250059174A1, “Pharmaceutical Compounds and Compositions as C-Kit Kinase Inhibitors” (Enanta Pharmaceuticals, Inc., priority 2023, published 2025)
